Data on two compounds can be found in patent US20230142026A1, “COMPOSITION FOR ENHANCING DROUGHT AND OSMOTIC STRESS RESISTANCE, AND THEIR USES” (REPUBLIC OF KOREA (MANAGEMENT : RURAL DEVELOPMENT …, priority 2019, published 2023).

Assay [1] concerns pABRE-DRE::fLUC with OsPP2C51 or OsPP2C68. Put plainly: pABRE-DRE::fLUC reporter in rice protoplasts co-expressing OsPP2C51 or OsPP2C68 (ABA signaling inhibitors). It counts as cell-based. The source says:
In addition, in order to investigate the signal transduction process activated by the S17 compound, the dephosphorylation enzyme, OsPP2C51 or OsPP2C68 gene, which inhibits ABA signaling, and reporter transporters (pABRE-DRE::fLUC, pUbi10::rLUC) were simultaneously transiently expressed in rice protoplasts and then treated with ABA and the S17 compound to identify the expression of the reporter.

Assay [2] concerns rice. The assay is described as follows: Water loss rate of cut third leaves of compound-treated rice. It counts as in vivo. The settings on record: one day. The method, then: (§1) In addition, the third leaves of rice of the experimental and control groups treated with ABA (5 μM) and S17 (various concentrations, 10 and 20 μM), respectively, for one day were cut, and the water loss rate was compared therebetween. […] The amount of water in a 50-ml tube that was used for 2 days by three Dongjin rice plants which had been grown for 14 days in a nutrient solution was measured. The control group used 19.9 g of water on average for 2 days, the group treated with ABA (5 μM) used 8.7 g of water, and the groups treated with 10 μM S17 and 20 μM S17 used 14.7 g and 12.5 g of water, respectively (FIG. 2E).

The next assay relates to Dongjin rice plants. The assay is described as follows: Water consumption of compound-treated rice plants in 50-ml tube. It counts as in vivo. As to conditions: three 14-day plants, control 19.9 g. The method, then: as §1
Another assay deals with pABRE-DRE::fLUC. Put plainly: Induction of environmental stress response: pABRE-DRE::fLUC reporter in rice protoplasts. It counts as cell-based. The settings on record: 15 hours after treatment. How it is done:
Rice protoplasts were transiently transformed with a pABRE-DRE::fLUC transporter, which induces the expression of the reporter gene, luciferase, in response to the plant environmental stress resistance hormone ABA (abscisic acid), and were then treated with 90 kinds of compounds having a structure similar to ABA received from the Korea Chemical Bank, and a compound that enhances the expression of the reporter was selected from the compounds and referred to as “S17”.
In order to verify the effect of inducing response to environmental stress of the S17 compound compared with ABA, pABRE-DRE::fLUC and the transformation marker pUbi10::rLUC transporter were transiently expressed in rice protoplasts, and then treated with ABA and the S17 compound. After 15 hours, the degree of expression of fLUC was detected.

Assay [3] relates to rice. Put plainly: Drought resistance (drying experiment) of S17-treated rice. Format: in vivo. How it is done: An experimental group, in which rice grown in a nutrient solution for 14 days was treated with S17, was compared with an untreated control group to determine whether or not S17 induces drought resistance. 3 days after treatment with S17, the nutrient solution fed to the experimental and control plants was removed to induce drought stress. The plants were allowed to be dried (for 12 to 24 hours) and water was fed again to the control and experimental groups, and the rate of the surviving plants was measured (FIGS. 2A and 2B). […] The dry weight of the experimental group was measured. […] This is considered to be due to the effect of inhibiting growth occurring during the treatment with S17.

Assay [4] concerns rice. The assay is described as follows: Osmotic stress resistance of S17-treated rice using mannitol. Format: in vivo. The method, then: Thus, the effects of S17 on osmotic stress were detected. Osmotic stress was induced using mannitol in 14-day-old rice after treatment with S17. The experimental group treated with 5 μM and 10 μM of S17 and the untreated control group were treated with 0 mM, 100 mM, and 200 mM of mannitol, and the growth of these plants was observed (FIG. 3A).
In addition, in order to determine the osmotic stress resistance and growth-enhancing effect, osmotic stress was induced using mannitol in 14-day-old rice treated with S17. The experimental group treated with 5 μM and 10 μM of S17 and the untreated control group were treated with 0 mM, 100 mM, and 200 mM of mannitol, and then the water consumption of these plants and the dry weight after the experiment were measured (FIG. 3). […] As the concentration of mannitol increased, the amount of water used in plants decreased due to osmotic pressure stress.

Regarding `CC1=CC(=O)CC(C)(C)[C@@]1(O)/C=C/C(C)=C\C(=O)O` [ABA, abscisic acid, reference compound], the “expression of fLUC with OsPP2C51 or OsPP2C68” value in assay [1] is given as “inhibited”. Further, the water loss rate entry in the assay on rice [2] (ABA 5 μM) is on record as “decreased water loss rate”. In addition, in the assay with Dongjin rice plants (5 μM), the “amount of water used for 2 days” value was 8.7 g.
With `O=C(O)/C=C/c1ccsc1` [S17], in the assay on pABRE-DRE::fLUC, the “degree of expression of fLUC” value is recorded as “significantly expressed”. Besides, in assay [1], the “expression of fLUC with OsPP2C51 or OsPP2C68” value is “induced”. In the assay on rice [3] (14-day rice, 3 days after S17 treatment, dried 12 to 24 hours, water fed again, control 16.6%), this compound displayed an average survival rate of 76.7%. Moreover, the “dry weight relative to average weight of control group” value with rice [3] (after drying experiment) is recorded as 91.5%. In addition, the water loss rate result in the assay with rice [2] (S17 10 and 20 μM) is given as “decreased water loss rate”. In addition, the entries for the “amount of water used for 2 days” value in the assay on Dongjin rice plants (10 μM) and with Dongjin rice plants (20 μM) were 14.7 g and 12.5 g, respectively. The “water consumption rate compared to the control group” value amounted to 97.5% in the assay on rice [4] (5 μM S17, 0 mM mannitol) and 78% in the assay on rice [4] (10 μM S17, 0 mM mannitol). Moreover, the “amount of water used vs control not treated with S17” value was determined as 120% in the assay with rice [4] (5 μM S17, 100 mM mannitol); 119% with rice [4] (5 μM S17, 200 mM mannitol); 106% in the assay with rice [4] (10 μM S17, 100 mM mannitol); 128% in the assay on rice [4] (10 μM S17, 200 mM mannitol). For the same compound, the “dry weight compared to the group treated with 0 μM of S17” value was determined as 101% in the assay with rice [4] (5 μM S17, 100 mM mannitol); 106% with rice [4] (5 μM S17, 200 mM mannitol); 97% in the assay with rice [4] (5 μM S17, no mannitol); 104% with rice [4] (10 μM S17, 100 mM mannitol); 112% in the assay on rice [4] (10 μM S17, 200 mM mannitol); 82% with rice [4] (10 μM S17, no mannitol). The “leaf curling caused by osmotic stress” value with rice [4] (5 μM and 10 μM S17, 0, 100, 200 mM mannitol) is on record as “significantly reduced”.
